Experimental findings from PubChem BioAssay (NCI) are described below.

Some test systems named below: SK-MEL-2 melanoma; KM12 colon; 786-0 renal; ACHN renal; U251 CNS; TK-10 renal; MCF7 breast; M14 melanoma; SK-MEL-28 melanoma; SNB-19 CNS; HL-60(TB) leukemia; OVCAR-5 ovarian; NCI-H226 lung; HT29 colon; MDA-N; OVCAR-4 ovarian; HCT-15 colon; MOLT-4 leukemia; NCI-H23 lung; MALME-3M melanoma.
What all share (test): NCI tumour cell line growth inhibition, 48 h

SMILES strings stand for the structures.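 Cells were grown in 96-well plates and exposed to each compound for 48 hours at five concentrations; endpoints were interpolated linearly between bracketing concentrations, or set to the highest concentration if not reached. At the TGI there is no net growth.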 Some results are limits rather than exact numbers.

As for `O=C1CSC(c2ccccc2O)N1c1ccc(-n2c(-c3ccccc3)nc3ccccc3c2=O)cc1` (stereo not given), the TGI was 59.1 µM in the assay on SK-MEL-2 melanoma; 97.7 µM in the assay with KM12 colon; above 100 µM with 786-0 renal; 83.6 µM in the assay on ACHN renal; above 100 µM with U251 CNS; above 100 µM in the assay on TK-10 renal. Also, the TGI in the assay on MCF7 breast, in the assay with M14 melanoma, in the assay with SK-MEL-28 melanoma, in the assay on SNB-19 CNS, in the assay on HL-60(TB) leukemia and in the assay on OVCAR-5 ovarian was above 100 µM throughout. The TGI in the assay on NCI-H226 lung is 97.5 µM; in the assay with HT29 colon, above 100 µM; in the assay with MDA-N, above 100 µM; in the assay with OVCAR-4 ovarian it was above 100 µM; in the assay on HCT-15 colon, 60.1 µM; with MOLT-4 leukemia it was above 100 µM. In addition, the TGI with NCI-H23 lung was above 100 µM; in the assay with MALME-3M melanoma, 74.6 µM.

For the compound `COC(=O)C(=O)Nc1cc2c3c(c1)Oc1cccc4c1C3(C)c1c(cccc1O2)O4`, the TGI in the assay on SK-MEL-2 melanoma was above 100 µM; in the assay on KM12 colon, above 100 µM; with 786-0 renal it was above 79.7 µM; in the assay on ACHN renal, above 100 µM; in the assay with U251 CNS, above 100 µM; in the assay on TK-10 renal, above 100 µM. The TGI was above 100 µM with MCF7 breast; above 100 µM in the assay with M14 melanoma; above 100 µM with SK-MEL-28 melanoma; above 100 µM in the assay with SNB-19 CNS; 14.2 µM in the assay on HL-60(TB) leukemia; above 100 µM with OVCAR-5 ovarian. In addition, the TGI with NCI-H226 lung was 44.8 µM; in the assay on HT29 colon, above 40.6 µM; in the assay with MDA-N, above 100 µM; with OVCAR-4 ovarian, above 100 µM; in the assay on HCT-15 colon it was above 100 µM; in the assay with MOLT-4 leukemia it was above 100 µM. Besides, the TGI with NCI-H23 lung and in the assay on MALME-3M melanoma was above 100 µM each time.

As for `CC(C)[C@H]1NC(=O)[C@H]2N=C(S[C@H]2C)[C@@H]2CCCN2C(=O)[C@H](Cc2ccccc2)NC(=O)[C@@H]2CSC(=N2)[C@@H](Cc2ccccc2)NC(=O)[C@@H]2CSC1=N2`, the TGI with SK-MEL-2 melanoma, with KM12 colon, in the assay with 786-0 renal, in the assay on ACHN renal, with U251 CNS and with TK-10 renal was above 50 µM in each case. The TGI in the assay with MCF7 breast is above 50 µM; in the assay with M14 melanoma it was above 50 µM; with SK-MEL-28 melanoma, above 50 µM; in the assay on SNB-19 CNS, above 50 µM; with HL-60(TB) leukemia, 16.3 µM; with OVCAR-5 ovarian, above 50 µM. For the same compound, the TGI is above 50 µM in the assay on NCI-H226 lung; above 50 µM with HT29 colon; above 50 µM with MDA-N; above 50 µM in the assay with OVCAR-4 ovarian; above 50 µM in the assay with HCT-15 colon; 29.5 µM in the assay with MOLT-4 leukemia. The TGI in the assay on NCI-H23 lung and in the assay on MALME-3M melanoma was above 50 µM in each case.

As to `O=[N+]([O-])/C(Cl)=C(/C(Cl)=C(Cl)Cl)N1CCOCC1`, the TGI in the assay on SK-MEL-2 melanoma worked out at 11.6 µM; with KM12 colon, 13.1 µM; in the assay with 786-0 renal, 10 µM; with ACHN renal, 20.5 µM; in the assay on U251 CNS, 27 µM; in the assay on TK-10 renal, 13.6 µM. For the same compound, the TGI worked out at 8.25 µM in the assay on MCF7 breast; 7.66 µM in the assay with M14 melanoma; 34.3 µM with SK-MEL-28 melanoma; 38.3 µM in the assay with SNB-19 CNS; 5.23 µM in the assay with HL-60(TB) leukemia; 22 µM in the assay with OVCAR-5 ovarian. In addition, the TGI in the assay with NCI-H226 lung came out at 40.4 µM; in the assay with HT29 colon it was 14.2 µM; with MDA-N it was 6.77 µM; with OVCAR-4 ovarian, 16.7 µM; in the assay on HCT-15 colon, 3.24 µM; in the assay on MOLT-4 leukemia, 7.32 µM. Moreover, the TGI in the assay with NCI-H23 lung was determined as 5.68 µM; with MALME-3M melanoma it was 3.07 µM.

For `CC(C)[Si]1(C(C)C)OCC2OC(n3ccc(=O)[nH]c3=O)C([Se]c3ccccc3)C2O[Si](C(C)C)(C(C)C)O1` (stereo not given), the TGI amounted to 20.1 µM in the assay on SK-MEL-2 melanoma; 6.62 µM in the assay with KM12 colon; 7.77 µM in the assay on 786-0 renal; 6.59 µM in the assay on ACHN renal; 4.87 µM in the assay with U251 CNS; 19.9 µM in the assay with TK-10 renal. Further, the TGI was 8.27 µM in the assay with MCF7 breast; 21.8 µM with M14 melanoma; 12.5 µM in the assay on SK-MEL-28 melanoma; 0.677 µM with SNB-19 CNS; above 25.4 µM in the assay with HL-60(TB) leukemia; 22.8 µM in the assay with OVCAR-5 ovarian. The TGI was 3.88 µM with NCI-H226 lung; 3.99 µM in the assay with HT29 colon; 12.7 µM in the assay on MDA-N; 9.67 µM with OVCAR-4 ovarian; 16.3 µM in the assay on HCT-15 colon; above 22.9 µM in the assay on MOLT-4 leukemia. The TGI stood at 13 µM with NCI-H23 lung and 8.93 µM in the assay with MALME-3M melanoma.

Take `C[C@@H]1CC[C@H]2[C@H](C)C(OC3O[C@@H]4O[C@@]5(C)CC[C@H]6[C@H](C)CC[C@@H]([C@@H]3C)[C@@]46O5)O[C@@H]3O[C@@]4(C)CC[C@@H]1[C@]32O4` (stereo not given in full): the TGI in the assay with SK-MEL-2 melanoma, in the assay with KM12 colon, in the assay on 786-0 renal, with ACHN renal, in the assay with U251 CNS and in the assay on TK-10 renal was above 100 µM in each case. For the same compound, the TGI in the assay with MCF7 breast, in the assay with M14 melanoma, with SK-MEL-28 melanoma, with SNB-19 CNS, with HL-60(TB) leukemia and in the assay with OVCAR-5 ovarian was above 100 µM in each case. For the same compound, the TGI in the assay with NCI-H226 lung, with HT29 colon, in the assay with MDA-N, in the assay with OVCAR-4 ovarian, in the assay with HCT-15 colon and in the assay with MOLT-4 leukemia was above 100 µM throughout. For the same compound, the TGI in the assay with NCI-H23 lung and in the assay on MALME-3M melanoma was above 100 µM in each case.
